Entries after “also recorded” stand apart in the source; their conditions may differ.

For experiment [1], the system named is tumour cells 786-0. As to the kind of experiment: Cell proliferation of 786-0 tumour cells (cell count and BrdU incorporation). The experiment is classed as cell-based, human. Particulars: antagonist at different concentrations, medium without serum, 48 hrs. The protocol:
(§1) The cells were cultured in plates with 24 wells (1 ml per well) and in plates with 96 well (100 μl per well) at the rate of 10,000 to 30,000 C/ml. The cells were cultivated in the medium with serum described above. For the assays with the RPTH1 antagonists, after 24 hrs of culture, the medium was changed for a medium without serum containing 0.1% BSA (bovine serum albumin, Sigma) and the antibiotics. This manipulation facilitates cultivation of the cells in the absence of the factors present in the serum and facilitates assessment of the influence of the antagonist on cell proliferation. […]
(§2) The cell proliferation was determined by two means, on the one hand by counting the cells (manual counting) using plates with 24 wells and on the other hand by measuring the incorporation of 5-bromo-2′-deoxyuridine (BrdU) using plates with 96 wells.
(§3) The culture medium is removed by suction and an adequate volume of trypsin-EDTA (Sigma) is added. […] The cells are then recovered and manually counted with a counting cell placed under an optic microscope. […]
(§4) For the experiments in vitro, the results of the manual counts are expressed as a percentage of the number of cells present in the control wells. […] The incorporations in response to the treatments are thus expressed as a percentage of the incorporations of positive controls taken as 100% incorporation. […]

The test system of a further experiment is tumour cells UOK-126. As to the kind of experiment: Cell proliferation of UOK-126 tumour cells (cell count and BrdU incorporation). The experiment is classed as cell-based, human. Particulars: different concentrations, medium without serum, 48 hrs. As to the method:
as §1, §2, §3, §4

The next experiment deals with tumour cells UOK-128. The experiment in a line: Cell proliferation of UOK-128 tumour cells (cell count and BrdU incorporation). The class given is cell-based, human. Particulars: different concentrations, medium without serum, 48 hrs. The protocol: as §1, §2, §3, §4
In general terms: Uptake of a labelled nucleoside into DNA is a usual measure of proliferation.

Experiment [2] deals with tumour cells 786-0. The experiment in a line: Analysis of cell death/apoptosis (detachment, OA/EB staining, DNA laddering). As to conditions: 48 hrs. The class given is cell-based, human. The protocol: The cells were treated under control conditions or with either an anti-PTHrP N-terminal antibody at 1.5 μg/ml or a RPTH1 antagonist at 1 μM for 48 hrs. The orange acridine (OA) and the ethidium bromide (EB) were dissolved in a PBS buffer and added at 2 μg/ml in the culture medium. The cells were observed and photographed under fluorescence microscopy, either for the FITC (OA) or for the TRITC (EB). The fragmentation of the internucleosomal DNA was detected by a “DNA laddering” test. The cells were re-suspended in 300 μl of lysis buffer (25 mM EDTA, 1% SDS, 1 mg/ml proteinase K, pH 8) and incubated overnight at 50° C. DNA was extracted by phenol/chloroform, precipitated with ethanol and analysed by electrophoresis on agarose gel.

Experiment [3] has as its system 786-0 cells implanted subcutaneously. The experiment in a line: Pilot protocol: subcutaneous 786-0 tumours in nude mouse, twice weekly injections. The experiment is classed as in vivo. Particulars: for growth of implanted tumours: twice weekly i.p. and intratumoural injections, 25 days (antibody stopped after 18 days), versus control. The protocol: (§5) The 786-0 cells were cultivated in the RPMI 1640 medium supplemented with serum until confluence. The cells were recuperated by trypsination and re-suspended in RPMI 1640 medium without serum and without antibiotics at the rate of 5 million cells/200 μl the same day of implantation of the mice. The cells were implanted subcutaneously in the backs of nude mice at the rate of 200 μl per implantation. A week to 10 days after the implantation of the cells, the tumours developed forming nodules of approximately 60 to 300 mm^3. From this moment, the treatments were initiated according to three protocols: a pilot protocol which was performed in order to determine the effectiveness of the treatments in vivo and carried out on two mice per experimental condition receiving 4 implantations (namely 8 tumours/experimental condition) and two experimental protocols elaborated following the results obtained with the pilot protocol on 10 or 5 mice per experimental condition and receiving 1 or 2 implantations (namely 10 tumours/experimental condition).
Pilot Protocol. In this protocol, 6 mice were separated into three groups: a first group receiving injections of sterile water (control), a second group receiving injections of anti-PTHrP (1-34) antibody (Bachem, dissolved in sterile water) and a third group receiving injections of antagonist (Asn10, Leu11, D-Trp12)PTHrP(7-34) amide (Bachem, dissolved in sterile water). All injections were performed 2 times per week intra-peritoneally (50 μg/mouse of antibody or 20 μg/mouse of antagonist in 200 μl) and in intra-tumoural terms (25 μg/mouse of antibody or 10 μg/mouse of antagonist in […]). […] The volume of the tumours (length×width×depth×0.5236) was manually measured in a blind manner with callipers on days 0, 4, 7, 12, 14, 18, 23 and 25 after the first injection of the compounds under light gas anaesthesia with isoflurane. […]
(§6) For the experiments in vivo in the nude mouse, the results of tumour growths were expressed as a percentage of the size at day 0 of the treatments. The results are expressed as a mean +/−ESM. […]

The test system is the same in experiment [4]. As to the kind of experiment: First experimental protocol: subcutaneous 786-0 tumours in nude mouse, daily RPTH1 antagonist. The experiment is classed as in vivo. The protocol:
as §5
First Experimental Protocol. […] Consequently, in this protocol, on the one hand the numbers in each group were increased (10 mice with a tumour/experimental group) and on the other hand daily injections either of water (control) or of the RPTH1 antagonist (dissolved in sterile water) were performed. As for the pilot protocol, all the injections were performed intraperitoneally (200 μl water or 20 μg/mouse of antagonist in 200 μl) and intratumourally (100 μl of water or 10 μg/mouse of antagonist in 100 μl). For this series, the size of the tumours was measured in a blind way twice a week under light gas anaesthesia with isoflurane. At the end of the experimental period, the mice were anaesthetised with pentobarbital. Approximately 0.5 ml of blood was then recovered rapidly through intracardiac puncture of each mouse for the dosage of electrolytes and circulating PTHrP. The tumours were dissected and fixed in formol for subsequent histo-pathological studies (necrotic aspect) and immunohistochemical studies (factor VIII, PTHrP, RPTH1, mitotic index and apoptotic index).
Proliferative and Apoptotic Index. The proliferation index was determined by coloration of tumour section with a monoclonal mouse antibody anti-Ki67 human, Dako, Trappes, France) using standard methods. The detection kit of apoptotic cells based upon the TUNEL method (Roche Diagnostics) was used to measure the apoptotic index on the sections. The total cells and those coloured in 15 fields (0.25 mm^2 each) of the highest cell coloration were counted in order to determine the two indexes which are expressed as a percentage of coloured cells in relation to total cells.
Factor VIII and Microvascular Density. The tumour sections were coloured for the endothelial cells with a rabbit polyclonal antibody anti-human […], (Dako) using standard methods. The density of the micro-vessels was determined by counting the intersection points between vessels and the total number of vessels of 4 to 5 fields (0.25 mm^2 each) showing the highest vascular density.
as §6

Where [5] appears, read: daily antagonist, treated versus control group.

As to “(Asn10, Leu11, D-Trp12)PTHrP(7-34) amide (human, rat) [RPTH1 antagonist]”, in the experiment on tumour cells 786-0 [1], the “inhibition of cell proliferation” value was determined as 70%. Also, the “effect of antagonist on cell proliferation” value in the experiment with tumour cells UOK-126 is recorded as “inhibit very strongly”. The “effect of antagonist on cell proliferation” value with tumour cells UOK-128 is “strongly inhibit”. The “number of cells marked by EB (cell death)” value in the experiment with tumour cells 786-0 [2] (1 μM, compared with non-treated cells) was “clearly increases”. The “cell adherence to the culture support” value with tumour cells 786-0 [2] (10^−6 M, RPMI 1640 without serum) was “detaching the cells from the culture support”. For the same substance, the “growth of implanted tumours” value in experiment [3] is listed as “blocks the growth”. The “growth of implanted tumours” value in experiment [3] (listed as antagonist) is given as “considerably slowed-down growth; also recorded: greatly slow down tumour growth”. Also, the “first day of significant tumour growth in comparison to day 0” value in experiment [3] (twice weekly treatment, control significant from day 7) worked out at 12 days. In experiment [4] (setting [5]), the “apoptotic index (TUNEL) of tumours” value is on record as “increased twofold”; the “histopathological analysis of tumours” value is on record as “No polymorphic difference”; the “number of intersection points of the vessels and total number of vessels per surface area” value was “significantly increased”; the “proliferation index (Ki67) of tumours” value is “not different”. The “growth of implanted tumours” value in experiment [4] (daily i.p. 20 μg/mouse and intratumoural 10 μg/mouse, 17 days, versus control) is on record as “totally inhibited; also recorded: completely blocks the tumour growth”.

(Values after US7727526B2, “Use of PTHrP antagonists for treating renal cell carcinoma” (Universite Louis Pasteur, priority 2002, dated 2010).)
